Key:
[1] = tested on: Hs578T; experiment: Matrigel outgrowth assay/branching assay; type: cell-based; conditions: Homo sapiens, Hs-578T; HS578T cell line; Table Ib; read-out: Total branching inhibition in Matrigel HS578T
Experimental: The Matrigel outgrowth assay is based on the ability of tumor cell to penetrate a solid gel of extracellular matrix proteins mimicking the metastasis formation in vivo. While cells with low invasive potential appear as roundish cell or cell cluster, cells with high invasive potential penetrate the Matrigel and form polymorphic structures. In detail 65 μl of Matrigel matrix (Matrigel™ Matrix, BD Biosciences, Bedford, Mass., USA) with a concentration of 3 mg/ml have been polymerized in 96 well plates for 1 h at 37° C. Subsequently 5000 cell/well were seeded into each well containing cell culture medium and indicated compound with concentrations of 3.125 μM, 1.56 μM and 0.78 μM as well as DMSO control. After 48 h, 72 h and 96 h images of cell were taken on an inverted microscope using a 5× objective (Zeiss Axiovert S100 microscope Carl Zeiss UK, Welwyn Garden City, UK). Only compound concentrations were total branching inhibition was evident were accounted as positive. Method was used as previously described, with some modifications (Thompson E W, et al. Association of increased basement membrane invasiveness with absence of estrogen receptor and expression of vimentin in human breast cancer cell lines. J Cell Physiol 1992; 150:534-44).

[2] = tested on: Hs578T; experiment: Cell vitality assay (ATP assay, CellTiter-Glo); type: cell-based; conditions: Homo sapiens, Hs-578T; HS578T cell line, 72 h; Table Ib; read-out: IC50 ATP-Assay HS578T after 72 h
Experimental: The CellTiter-Glo® Luminescent Cell Viability Assay (Promega Corporation. Madison, Wis., USA) is method a determining the number of viable cells in culture based on quantification of the ATP being present which is an indicator of metabolically active cells was used according to manufacturers protocol, In detail the assay was performed in a 96 well format were 1000 cells/well were incubated with indicated compound at concentration of 12.5 μM, 6.25 μM, 3.125 μM, 1.56 μM, 0.78 μM, 0.39 μM, 0.195 μM as well as DMSO control for 72 h in 100 μl cell culture medium. IC50 values were calculated as 50% of ATP amount compared to DMSO control.
Protocol for the CellTiter-Glo® Luminescent Cell Viability Assay • 1. Prepare opaque-walled multiwell plates with mammalian cells in culture medium, 100 μl per well for 96-well plates • 2. Prepare control wells containing medium without cells to obtain a value for background luminescence. • 3. Add the compound to be tested to experimental wells, and incubate according to culture protocol. • 4. Equilibrate the plate and its contents at room temperature for approximately 30 minutes. • 5. Add a volume of CellTiter-Glo® Reagent (Promega Corporation. Madison, Wis.) equal to the volume of cell culture medium present in each well. • 6. Mix contents for 2 minutes on an orbital shaker to induce cell lysis. • 7. Allow the plate to incubate at room temperature for 10 minutes to stabilize luminescent signal. • 8. Record luminescence on Microplate Luminometer LB96V (Berthold Tchnologies, Bad Wildbad, Germany). An integration time of 0.1 and 1 second per well

[3] = tested on: Hs578T; experiment: Wound healing migration assay; type: cell-based; conditions: Homo sapiens, Hs-578T; HS578T cell line; Table Ib
Experimental: This method mimics cell migration during wound healing in vivo. The basic steps involve creating a “wound” in a cell monolayer, capturing the images at the beginning and at regular intervals during cell migration to close the wound, and comparing the images to quantify the migration rate of the cells. In detail, 150000 cell/24 well have been seeded and allowed to form a monolayer overnight. Subsequently a “wound” or “scratch” has been performed with a 1000 μl pipette tip. The STDV of wound size is normally below 10% at time point t0. The assay was stopped by fixation with 0.05% Crystal violet/20% methanol when control scratches were closed. The assay was terminated between 48 h and 72 h depending on the migration potential of the indicated cell line. The “wounds” were visualized with a Zeiss Axiovert S100 microscope (Carl Zeiss UK, Welwyn Garden City, UK). The tested compounds were used at 12.5 μM, 6.25, 3.125 μM and DMSO control. IC50 values have been calculated as 50% wound size in between t0 and t48 or t72.

Row | Structure (SMILES) | IC50 [1] [µM] | melting point [°C] | IC50 [2] [µM] | IC50 [3] [µM]
1 | COc1cc2c(Oc3ccc(NS(=O)(=O)c4ccn(C)n4)cc3F)ccnc2cc1OCCCN1CCOCC1 [Example 165, 1-Methyl-1H-pyrazole-3-sulfonic acid {3-fluoro-4-[6-methoxy-7-(3-morpholin-4-yl-propoxy)-quinolin-4-yloxy]-phenyl}-amide] | 10 to 25 | 198 to 199 | ≤ 12.5 | 12.5 to 50
2 | COc1cc2c(Oc3cccc(NS(=O)(=O)c4sc(NC(C)=O)nc4C)c3)ccnc2cc1OCCCN1CCN(C)CC1 [Example 132, N-[5-(3-{6-Methoxy-7-[3-(4-methyl-piperazin-1-yl)-propoxy]-quinolin-4-yloxy}-phenylsulfamoyl)-4-methyl-thiazol-2-yl]-acetamide] | 10 to 25 | 148 to 150 | 12.5 to 50 | 12.5 to 50
3 | COc1ccc2nccc(Oc3ccc(NS(=O)(=O)C4CC4)cc3F)c2c1 [Example 206, Cyclopropanesulfonic acid [3-fluoro-4-(6-methoxy-quinolin-4-yloxy)-phenyl]-amide] | 10 to 25 | 194 to 196 | 12.5 to 50 | 12.5 to 50
4 | COc1cc2c(Oc3ccc(NS(=O)(=O)c4cnc(C)[nH]4)cc3F)ccnc2cc1OCCCN1CCC(C)CC1 [Example 168, 2-Methyl-3H-imidazole-4-sulfonic acid (3-fluoro-4-{6-methoxy-7-[3-(4-methyl-piperidin-1-yl)-propoxy]-quinolin-4-yloxy}-phenyl)-amide] | 10 to 25 | 225 to 226 | 12.5 to 50 | 12.5 to 50
5 | COc1cc2c(Oc3ccc(Cl)c(NS(=O)(=O)c4ccccc4OC(F)(F)F)c3)ccnc2cc1OCCCN1CCC(C)CC1 [Example 196, N-(2-Chloro-5-{6-methoxy-7-[3-(4-methyl-piperidin-1-yl)-propoxy]-quinolin-4-yloxy}-phenyl)-2-trifluoromethoxy-benzenesulfonamide] | 10 to 25 | 123 to 126 | 12.5 to 50 | 12.5 to 50
6 | COc1cc2c(Oc3ccc(NS(=O)(=O)c4c(C)nn(C)c4C)cc3F)ccnc2cc1OCCCN1CCN(C)CC1 [Example 162, 1,3,5-Trimethyl-1H-pyrazole-4-sulfonic acid (3-fluoro-4-{6-methoxy-7-[3-(4-methyl-piperazin-1-yl)-propoxy]-quinolin-4-yloxy}-phenyl)-amide] | 10 to 25 | 80 to 81 | ≤ 12.5 | 12.5 to 50
7 | COc1cc2c(Oc3ccc(Cl)c(NS(=O)(=O)c4ccccc4C(F)(F)F)c3)ccnc2cc1OCCCN1CCC(C)CC1 [Example 195, N-(2-Chloro-5-{6-methoxy-7-[3-(4-methyl-piperidin-1-yl)-propoxy]-quinolin-4-yloxy}-phenyl)-2-trifluoromethyl-benzenesulfonamide] | 10 to 25 | 179 to 181 | 12.5 to 50 | 12.5 to 50
8 | COc1cc2c(Oc3cccc(NS(=O)(=O)c4c(F)cccc4F)c3)ccnc2cc1OCCCN1CCN(C)CC1 [Example 125, 2,6-Difluoro-N-(3-{6-methoxy-7-[3-(4-methyl-piperazin-1-yl)-propoxy]-quinolin-4-yloxy}-phenyl)-benzenesulfonamide] | 10 to 25 | 171 to 172 | ≤ 12.5 | ≤ 12.5
9 | COc1cc2c(Oc3cccc(NS(=O)(=O)/C=C/c4ccccc4)c3)ccnc2cc1OCCCN1CCN(C)CC1 [Example 143, 2-Phenyl-ethenesulfonic acid (3-{6-methoxy-7-[3-(4-methyl-piperazin-1-yl)-propoxy]-quinolin-4-yloxy}-phenyl)-amide] | ≤ 10 | 85 to 87 | ≤ 12.5 | ≤ 12.5
10 | COc1cc2c(Oc3ccc(NS(=O)(=O)c4sc(NC(C)=O)nc4C)cc3F)ccnc2cc1OCCCN(C)C [Example 183, N-(5-{4-[7-(3-Dimethylamino-propoxy)-6-methoxy-quinolin-4-yloxy]-3-fluoro-phenylsulfamoyl}-4-methyl-thiazol-2-yl)-acetamide] | 10 to 25 | 164 to 166 | 12.5 to 50 | 12.5 to 50
11 | COc1cc2c(Oc3ccc(NS(=O)(=O)c4ccn(C)n4)cc3F)ccnc2cc1OCCCN1CCCCC1 [Example 163, 1-Methyl-1H-pyrazole-3-sulfonic acid {3-fluoro-4-[6-methoxy-7-(3-piperidin-1-yl-propoxy)-quinolin-4-yloxy]-phenyl}-amide] | 10 to 25 | 167 to 168 | ≤ 12.5 | 12.5 to 50
12 | COc1cc2c(Oc3ccc(NS(=O)(=O)c4ccn(C)n4)cc3F)ccnc2cc1OCCCN1CCCCC1C (centres unmarked) [Example 150, 1-Methyl-1H-pyrazole-3-sulfonic acid (3-fluoro-4-{6-methoxy-7-[3-(2-methyl-piperidin-1-yl)-propoxy]-quinolin-4-yloxy}-phenyl)-amide] | 10 to 25 | 175 to 176 | ≤ 12.5 | 12.5 to 50
13 | COc1cc2c(Oc3cccc(NS(=O)(=O)C4CC4)c3)ccnc2cc1OCCCN1CCN(C)CC1 [Example 142, Cyclopropanesulfonic acid (3-{6-methoxy-7-[3-(4-methyl-piperazin-1-yl)-propoxy]-quinolin-4-yloxy}-phenyl)-amide] | 10 to 25 | 150 to 152 | 12.5 to 50 | 12.5 to 50
14 | COc1cc2c(Oc3cc(NS(=O)(=O)c4c(F)cccc4F)ccc3F)ccnc2cc1OCCCN1CCC(C)CC1 [Example 188, 2,6-Difluoro-N-(4-fluoro-3-{6-methoxy-7-[3-(4-methyl-piperidin-1-yl)-propoxy]-quinolin-4-yloxy}-phenyl)-benzenesulfonamide] | ≤ 10 | 185 to 186 | ≤ 12.5 | ≤ 12.5
15 | COc1cc2c(Oc3ccc(NS(=O)(=O)c4cnc(C)[nH]4)cc3F)ccnc2cc1OCCCN1CCN(C)CC1 [Example 170, 2-Methyl-3H-imidazole-4-sulfonic acid (3-fluoro-4-{6-methoxy-7-[3-(4-methyl-piperazin-1-yl)-propoxy]-quinolin-4-yloxy}-phenyl)-amide] | 10 to 25 | 215 to 217 | 12.5 to 50 | 12.5 to 50
16 | COc1ccc2nccc(Oc3ccc(NS(=O)(=O)c4c(Cl)cccc4Cl)cc3F)c2c1 [Example 204, 2,6-Dichloro-N-[3-fluoro-4-(6-methoxy-quinolin-4-yloxy)-phenyl]-benzenesulfonamide] | 10 to 25 | 219 to 221 | 12.5 to 50 | 12.5 to 50
17 | COc1cc2c(Oc3ccc(NS(=O)(=O)c4cnc(C)[nH]4)cc3F)ccnc2cc1OCCCN1CCCCC1 [Example 167, 2-Methyl-3H-imidazole-4-sulfonic acid {3-fluoro-4-[6-methoxy-7-(3-piperidin-1-yl-propoxy)-quinolin-4-yloxy]-phenyl}-amide] | 10 to 25 | 160 to 163 | 12.5 to 50 | 12.5 to 50

Source: patent US9169241B2, “Quinolinyloxyphenylsulfonamides” (Max-Planck-Gesellschaft Zur Forderung der Wissenschaften …, priority 2009, dated 2015)
